The record followed here is patent US20250100973A1, “DIIMIDE DERIVATIVE, AND PREPARATION METHOD THEREFOR AND USE THEREOF” (XIANGBEI WELMAN PHARMACEUTICAL CO., LTD., priority 2022, published 2025).

Assay [1] has as its system A549 human lung cancer cells. Put plainly: In vitro antiproliferative activity (resazurin, 96 h). In kind it is cell-based. Conditions: read-out: IC50 grade of inhibitory effect on tumor cells, A549. The method, then: (§1) Objective: to test the antiproliferative activity of the compound in the present disclosure against a variety of tumor cells. […] Amonafide and lomustine were commercially available. Test cells: human colon cancer cells (HT-29, COLO 205), human lung cancer cells (NCI-H460, A549), and human leukemia cells (HL-60, U-937). Test methods: each tumor cell was processed separately. Cells were cultured in a culture medium at 37° C. for 24 h for later use. The cells in the exponential growth phase were harvested, treated with trypsin to prepare a cell suspension, the cell suspension was centrifuged, and then the cell pellet was resuspended in a small amount of fresh culture medium as a stock cell solution. A 96-well plate was taken, and blank control groups, cell control groups and compound treatment groups were set up. […] The remaining wells were filled with 200 μL of 10% PBS. The plate was placed in an incubator overnight. 100 μL of each test compound at different dilution concentrations was added into each well of the compound treatment groups, 10 and the dilution concentrations of the compound were as shown in Table 2. […] After adding the drug, the plate was placed in an incubator to be cultured for 96 hours, 22 μL of resazurin sodium solution (Alarm blue, SIGMA R7017) was added into each well, and the plate was returned to the incubator to be cultured for another 4 h. The plate was shaken for 10 s after being taken out. A fluorescence value of each well was tested at 530/590 nm. The above operations were repeated for three times. The IC50 value of each test compound was calculated with the Prism7 software. The IC50 was divided into different grades according to value, that is: […]
On the technique in general: Resazurin is reduced to fluorescent resorufin, in cell work by metabolically active cells.

Assay [2] relates to COLO 205 human colon cancer cells. The description is as above. In kind it is cell-based. Conditions: read-out: IC50 grade of inhibitory effect on tumor cells, COLO 205. As to the method: as §1
Assay [3] has as its system HL-60 human leukemia cells. The description is as above. In kind it is cell-based. Conditions: read-out: IC50 grade of inhibitory effect on tumor cells, HL-60. As to the method: as §1
Assay [4] deals with HT-29 human colon cancer cells. The description is as above. The settings on record: read-out: IC50 grade of inhibitory effect on tumor cells, HT-29. In kind it is cell-based. The method, then:
as §1

Assay [5] has as its system NCI-H460 human lung cancer cells. Described as above. Format: cell-based. Conditions: read-out: IC50 grade of inhibitory effect on tumor cells, NCI-H460. The method, then:
as §1

In assay [6] the test system is U-937 human leukemia cells. The assay is described as above. Format: cell-based. The settings on record: read-out: IC50 grade of inhibitory effect on tumor cells, U-937. The method, then:
as §1

Assay [7] deals with COLO 205 transplanted tumor. Put plainly: In vivo antitumor effect in COLO 205 transplanted tumor model. The arrangement: species or system BALB/c nude mice. The settings on record: nude mice, COLO 205 xenograft, intragastric 10 mg/kg once a day, 21 times, last day. The method, then: Objective: to further test the in vivo antitumor effects of compounds of the present disclosure
Test compounds: I-01, I-08.
Test animals: 5-week-old female BALB/c nude mice were fed normally for 7 days, and mice with good physical conditions were selected for experiments.
Tumor cells: human colon cancer cells COLO 205 were subjected to cell culture in a RPMI-1640 medium containing 10% fetal bovine serum. The passaging was carried out for 1-2 times a week, with a passaging ratio of 1:3 to 1:6.
Modeling and grouping: COLO 205 cells in a logarithmic growth phase were harvested and injected into the anterior right mammary fat pad of nude mice with an injection volume of 5×10^6 cells per animal to establish a COLO 205 transplanted tumor model. The animal status was observed regularly, tumor diameter was measured, and tumor volume was calculated. After the tumor volume reached approximately 150 mm^3, tumor-bearing mice in good health and with similar tumor volumes were selected and randomly divided into a solvent control group, an I-01 group, and an I-08 group.
Administration: each test compound was dissolved in solvent, and each animal group was treated with corresponding compounds or blank solvent, respectively. The administration method was intragastric administration, with a dosage of 10 mg/kg, once a day, and a total of 21 times.
Result: on the last day of the experiment, tumor diameter and tumor weight were measured, tumor growth inhibition rate (GI) and tumor weight inhibition rate (IR) were calculated.
Tumor growth inhibition rate=100%×[1−(Tvt−Tvini)÷(Cvt−Cvini)], where Tvt represents tumor volume of the treatment group at the end of the experiment, Tvini represents initial tumor volume of the treatment group, Cvt represents tumor volume of the solvent control group at the end of the experiment, and Cvini represents initial tumor volume of the solvent control group.
Tumor weight inhibition rate=100%×(Cw−Tw)÷Cw, where Cw represents tumor weight of the solvent control group at the end of the experiment, and Tw represents tumor weight of the treatment group at the end of the experiment.

The mark [8] stands for this setting: Homo sapiens, A549, 96 h culture, resazurin fluorescence.
The mark [9] stands for this setting: Homo sapiens, COLO 205, 96 h culture, resazurin fluorescence.
[10] abbreviates: Homo sapiens, HL-60, 96 h culture, resazurin fluorescence.
Setting [11] is: Homo sapiens, HT-29, 96 h culture, resazurin fluorescence.
[12] abbreviates: Homo sapiens, NCI-H460, 96 h culture, resazurin fluorescence.
[13] abbreviates: Homo sapiens, U-937, 96 h culture, resazurin fluorescence.
[14] abbreviates: A549, 96 h culture, resazurin fluorescence.
Setting [15] is: COLO 205, 96 h culture, resazurin fluorescence.
The mark [16] stands for this setting: HL-60, 96 h culture, resazurin fluorescence.
Where [17] appears, read: HT-29, 96 h culture, resazurin fluorescence.
Setting [18] is: NCI-H460, 96 h culture, resazurin fluorescence.
[19] abbreviates: U-937, 96 h culture, resazurin fluorescence.

Where two headings read alike, the source gives them in different places. Bounds are passed on as bounds.

For the compound `CN(C)CCN1C(=O)c2cccc3cc(N)cc(c23)C1=O` [Amonafide], the concentration for half-maximal inhibition (IC50) in assay [1] (setting [8]) was in the range of 1 to 5 µM; in assay [2] (setting [9]), 5 to 10 µM; in assay [3] (setting [10]) it was 5 to 10 µM; in assay [4] (setting [11]), 11 to 20 µM; in assay [5] (setting [12]), 11 to 20 µM; in assay [6] (setting [13]) it was 11 to 20 µM.
Consider `CC(C)(C)OC(=O)NCCCN1CCN(CCCN2C(=O)c3cccc4cc([N+](=O)[O-])cc(c34)C2=O)CC1` [Cob280], for which the half-maximal inhibitory concentration (IC50) fell in the range of 11 to 20 µM in assay [1] (setting [8]); 11 to 20 µM in assay [2] (setting [9]); 5 to 10 µM in assay [3] (setting [10]); 5 to 10 µM in assay [4] (setting [11]); 11 to 20 µM in assay [5] (setting [12]); 5 to 10 µM in assay [6] (setting [13]).
As to `CC(C)(C)OC(=O)NCCCNCCCN1C(=O)c2cccc3cc([N+](=O)[O-])cc(c23)C1=O` [Cob281], the IC50 in assay [1] (setting [8]) is 5 to 10 µM; in assay [2] (setting [9]) it was 11 to 20 µM; in assay [3] (setting [10]), 5 to 10 µM; in assay [4] (setting [11]), 5 to 10 µM; in assay [5] (setting [12]) it was 11 to 20 µM; in assay [6] (setting [13]) it was 5 to 10 µM.
Turning to `O=NN(CCCl)C(=O)NCCN1C(=O)c2cccc3cc([N+](=O)[O-])cc(c23)C1=O` [Compound 1], the IC50 fell in the range of 5 to 10 µM in assay [1] (Homo sapiens, A549, 96 h); 21 to 50 µM in assay [2] (Homo sapiens, COLO 205, 96 h); 11 to 20 µM in assay [3] (Homo sapiens, HL-60, 96 h); 21 to 50 µM in assay [4] (Homo sapiens, HT-29, 96 h); 11 to 20 µM in assay [5] (Homo sapiens, NCI-H460, 96 h); 21 to 50 µM in assay [6] (Homo sapiens, U-937, 96 h).
Take `O=NN(CCCl)C(=O)NCCCCN1C(=O)c2cccc3cccc(c23)C1=O` [Compound 1d]: the concentration for half-maximal inhibition (IC50) in assay [1] (Homo sapiens, A549, 96 h) lay in the range of 21 to 50 µM; in assay [2] (Homo sapiens, COLO 205, 96 h) it was 21 to 50 µM; in assay [3] (Homo sapiens, HL-60, 96 h), 21 to 50 µM; in assay [4] (Homo sapiens, HT-29, 96 h), 21 to 50 µM; in assay [5] (Homo sapiens, NCI-H460, 96 h) it was 51 to 100 µM; in assay [6] (Homo sapiens, U-937, 96 h) it was 11 to 20 µM.
With `CN(CCNC(=O)N(CCCl)N=O)CCN1C(=O)c2cccc3cc([N+](=O)[O-])cc(c23)C1=O` [Compound I-01], the IC50 in assay [1] (setting [14]) is 0.5 to 1 µM; in assay [2] (setting [15]), < 0.5 µM; in assay [3] (setting [16]) it was < 0.5 µM; in assay [4] (setting [17]), < 0.5 µM; in assay [5] (setting [18]), < 0.5 µM; in assay [6] (setting [19]), < 0.5 µM. Further, the “Tumor growth inhibition rate (%)” value in assay [7] amounted to 75.3%. In assay [7], the “Tumor weight inhibition rate (%)” value worked out at 69.3%.
Regarding `CCN(CCNC(=O)N(C)CC)CCN1C(=O)c2cccc3cc([N+](=O)[O-])cc(c23)C1=O` [Compound I-04], the IC50 in assay [1] (setting [8]) is 1 to 5 µM; in assay [2] (setting [9]), 5 to 10 µM; in assay [3] (setting [10]) it was 1 to 5 µM; in assay [4] (setting [11]) it was 1 to 5 µM; in assay [5] (setting [12]) it was 1 to 5 µM; in assay [6] (setting [13]), 1 to 5 µM.
Turning to `CCN(CC)C(=O)N(C)CCNCN1C(=O)c2cccc3c(OC)ccc(c23)C1=O` [Compound I-06], the half-maximal inhibitory concentration (IC50) in assay [1] (setting [8]) lay within 1 to 5 µM; in assay [2] (setting [9]), 5 to 10 µM; in assay [3] (setting [10]), 1 to 5 µM; in assay [4] (setting [11]), 1 to 5 µM; in assay [5] (setting [12]), 5 to 10 µM; in assay [6] (setting [13]), 1 to 5 µM.
For `CN(C)C(=O)N(C)CCCNCN1C(=O)c2cccc3cccc(c23)C1=O` [Compound I-07], the IC50 in assay [1] (setting [8]) lay within 5 to 10 µM; in assay [2] (setting [9]), 1 to 5 µM; in assay [3] (setting [10]), 1 to 5 µM; in assay [4] (setting [11]), 5 to 10 µM; in assay [5] (setting [12]), 1 to 5 µM; in assay [6] (setting [13]) it was 5 to 10 µM.
Take `O=NN(CCCl)C(=O)N1CCN(CCN2C(=O)c3cccc4cc([N+](=O)[O-])cc(c34)C2=O)CC1` [Compound I-08]: the IC50 in assay [1] (setting [14]) lay in the range of 0.5 to 1 µM; in assay [2] (setting [15]) it was 0.5 to 1 µM; in assay [3] (setting [16]) it was 1 to 5 µM; in assay [4] (setting [17]) it was 1 to 5 µM; in assay [5] (setting [18]) it was 1 to 5 µM; in assay [6] (setting [19]), 0.5 to 1 µM. The “Tumor growth inhibition rate (%)” value in assay [7] is listed as 43.5%. Besides, the “Tumor weight inhibition rate (%)” value in assay [7] is on record as 31.2%.
Consider `O=NN(CCCl)C(=O)NC1CCCCC1` [Lomustine], for which the 50% inhibitory concentration (IC50) in assay [1] (setting [8]) was > 100 µM; in assay [2] (setting [9]), > 100 µM; in assay [3] (setting [10]) it was 21 to 50 µM; in assay [4] (setting [11]) it was 51 to 100 µM; in assay [5] (setting [12]), 51 to 100 µM; in assay [6] (setting [13]), 11 to 20 µM.

In general, IC50 refers to the concentration that inhibits the measured activity by half.
